In the supplement of paper PMC8612539:
In brackets after ≈: the same amount, converted by molar mass.

Test system: Histophilus somni
Test: minimum inhibitory concentration (MIC)
Protocol: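 Broth microdilution MIC (Sensititre BOPO7F bovine plate, CLSI methods) of 19 antimicrobials against field isolates of P. multocida, M. haemolytica, H. somni (deep nasopharyngeal swabs) and E. coli, Enterococcus spp. (rectal swabs) from weaned dairy heifers. Incubation 16-24 h at 35 C. MIC is the lowest concentration preventing visible growth. Values with <= or > lie at the tested range limits. Trimethoprim-sulfamethoxazole is given as the trimethoprim component of a 1:19 mixture.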

CS(=O)(=O)c1ccc([C@@H](O)[C@@H](CF)NC(=O)C(Cl)Cl)cc1 [Florfenicol]
Conditions	minimum inhibitory concentration [µg/mL]
isolate (source animal id): 3	≤ 0.25
isolate (source animal id): 4	1 (≈ 2.79 µM)
isolate (source animal id): 7	1 (≈ 2.79 µM)
isolate (source animal id): 14	1 (≈ 2.79 µM)
isolate (source animal id): 15	≤ 0.25
isolate (source animal id): 17	1 (≈ 2.79 µM)
isolate (source animal id): 18	≤ 0.25
isolate (source animal id): 20	1 (≈ 2.79 µM)
isolate (source animal id): 23	≤ 0.25
isolate (source animal id): 45	1 (≈ 2.79 µM)
isolate (source animal id): 53	1 (≈ 2.79 µM)
isolate (source animal id): 83	0.5 (≈ 1.4 µM)
isolate (source animal id): 88	0.5 (≈ 1.4 µM)
isolate (source animal id): 92	0.5 (≈ 1.4 µM)
isolate (source animal id): 93	≤ 0.25
isolate (source animal id): 99	0.5 (≈ 1.4 µM)
isolate (source animal id): 100	0.5 (≈ 1.4 µM)
isolate (source animal id): 105	0.5 (≈ 1.4 µM)
isolate (source animal id): 107	0.5 (≈ 1.4 µM)
isolate (source animal id): 108	1 (≈ 2.79 µM)
isolate (source animal id): 109	0.5 (≈ 1.4 µM)
isolate (source animal id): 110	0.5 (≈ 1.4 µM)
isolate (source animal id): 117	0.5 (≈ 1.4 µM)
isolate (source animal id): 121	0.5 (≈ 1.4 µM)
isolate (source animal id): 123	≤ 0.25
isolate (source animal id): 124	≤ 0.25
isolate (source animal id): 127	≤ 0.25
isolate (source animal id): 128	0.5 (≈ 1.4 µM)
isolate (source animal id): 130	1 (≈ 2.79 µM)
isolate (source animal id): 132	0.5 (≈ 1.4 µM)
isolate (source animal id): 135	0.5 (≈ 1.4 µM)
isolate (source animal id): 140	0.5 (≈ 1.4 µM)
isolate (source animal id): 141	≤ 0.25
isolate (source animal id): 142	1 (≈ 2.79 µM)
isolate (source animal id): 144	≤ 0.25
isolate (source animal id): 146	0.5 (≈ 1.4 µM)
isolate (source animal id): 147	1 (≈ 2.79 µM)
isolate (source animal id): 151	0.5 (≈ 1.4 µM)
isolate (source animal id): 153	≤ 0.25
isolate (source animal id): 154	1 (≈ 2.79 µM)
isolate (source animal id): 156	1 (≈ 2.79 µM)
isolate (source animal id): 157	≤ 0.25
isolate (source animal id): 176	≤ 0.25
isolate (source animal id): 183	≤ 0.25
isolate (source animal id): 186	≤ 0.25
isolate (source animal id): 196	≤ 0.25
isolate (source animal id): 198	≤ 0.25
isolate (source animal id): 200	≤ 0.25
isolate (source animal id): 206	≤ 0.25
isolate (source animal id): 208	≤ 0.25
isolate (source animal id): 210	≤ 0.25
isolate (source animal id): 212	≤ 0.25
isolate (source animal id): 215	≤ 0.25
isolate (source animal id): 216	≤ 0.25
isolate (source animal id): 218	≤ 0.25
isolate (source animal id): 219	≤ 0.25
isolate (source animal id): 224	≤ 0.25
isolate (source animal id): 228	≤ 0.25
isolate (source animal id): 230	≤ 0.25
isolate (source animal id): 233	1 (≈ 2.79 µM)
isolate (source animal id): 238	≤ 0.25
isolate (source animal id): 239	1 (≈ 2.79 µM)
isolate (source animal id): 241	≤ 0.25
isolate (source animal id): 242	≤ 0.25
isolate (source animal id): 243	≤ 0.25
isolate (source animal id): 245	1 (≈ 2.79 µM)
isolate (source animal id): 246	≤ 0.25
isolate (source animal id): 247	≤ 0.25
isolate (source animal id): 248	≤ 0.25
isolate (source animal id): 250	≤ 0.25
isolate (source animal id): 251	≤ 0.25
isolate (source animal id): 252	≤ 0.25
isolate (source animal id): 254	≤ 0.25
isolate (source animal id): 258	≤ 0.25
isolate (source animal id): 259	≤ 0.25
isolate (source animal id): 262	1 (≈ 2.79 µM)
isolate (source animal id): 264	≤ 0.25
isolate (source animal id): 265	≤ 0.25
isolate (source animal id): 266	≤ 0.25
isolate (source animal id): 267	≤ 0.25
isolate (source animal id): 269	≤ 0.25
isolate (source animal id): 271	≤ 0.25
isolate (source animal id): 272	≤ 0.25
isolate (source animal id): 274	1 (≈ 2.79 µM)
isolate (source animal id): 276	≤ 0.25
isolate (source animal id): 278	≤ 0.25
isolate (source animal id): 280	≤ 0.25
isolate (source animal id): 281	≤ 0.25
isolate (source animal id): 283	≤ 0.25
isolate (source animal id): 288	≤ 0.25
isolate (source animal id): 291	0.5 (≈ 1.4 µM)
isolate (source animal id): 292	≤ 0.25
isolate (source animal id): 296	≤ 0.25
isolate (source animal id): 306	≤ 0.25
isolate (source animal id): 336	≤ 0.25
isolate (source animal id): 337	≤ 0.25
isolate (source animal id): 341	≤ 0.25
